From ChEMBL document CHEMBL2216749, “Recent developments and biological activities of thiazolidinone derivatives: a review” (Bioorg Med Chem, 2012)
≈ marks a conversion by molar mass, not a printed value.

Assays:
[1] = tested on: Rattus norvegicus; experiment: Antiinflammatory activity in rat assessed as inhibition of carageenaan-induced paw edema relative to control; format: functional
[2] = tested on: Trypanosoma cruzi; experiment: Growth inhibition of Trypanosoma cruzi at 100 ug/ml; format: functional; conditions: read-out: GI
[3] = biological target: T1, Follicle-stimulating hormone receptor (Homo sapiens, UniProt P23945); experiment: Allosteric activation of human FSH receptor
T1 sequence (P23945 whole entry): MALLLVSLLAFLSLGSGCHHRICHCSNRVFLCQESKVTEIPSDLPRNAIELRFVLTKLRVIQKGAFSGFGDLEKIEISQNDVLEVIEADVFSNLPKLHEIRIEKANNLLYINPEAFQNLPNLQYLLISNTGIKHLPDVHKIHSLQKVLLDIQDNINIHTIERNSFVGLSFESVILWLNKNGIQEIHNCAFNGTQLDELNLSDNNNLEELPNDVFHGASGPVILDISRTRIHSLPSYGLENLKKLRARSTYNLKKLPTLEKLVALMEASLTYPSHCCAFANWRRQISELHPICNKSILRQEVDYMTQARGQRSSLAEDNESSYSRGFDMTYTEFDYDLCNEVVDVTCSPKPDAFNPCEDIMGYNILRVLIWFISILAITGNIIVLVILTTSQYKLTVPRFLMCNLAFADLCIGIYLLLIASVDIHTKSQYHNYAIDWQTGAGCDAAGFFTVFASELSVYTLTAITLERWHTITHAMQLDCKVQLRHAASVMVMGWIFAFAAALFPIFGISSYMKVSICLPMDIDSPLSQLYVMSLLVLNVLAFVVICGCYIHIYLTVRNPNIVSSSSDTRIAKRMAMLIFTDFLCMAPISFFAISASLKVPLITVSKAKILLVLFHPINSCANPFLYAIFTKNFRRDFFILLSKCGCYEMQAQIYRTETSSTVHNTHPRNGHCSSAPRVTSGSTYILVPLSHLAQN

[4] = biological target: T1, Follicle-stimulating hormone receptor; experiment: Agonist activity at human FSH receptor by cAMP-based assay; format: functional
[5] = biological target: T1, Follicle-stimulating hormone receptor; experiment: Agonist activity at human FSH receptor by aromatase-based assay; format: functional
[6] = tested on: Mycobacterium tuberculosis; experiment: Antimycobacterial activity against Mycobacterium tuberculosis H37Rv by alamar blue susceptibility assay; format: functional
[7] = tested on: Ditylenchus myceliophagus; experiment: Nematicidal activity against Ditylenchus myceliophagus after 2 days; format: functional; conditions: 48 h, read-out: LD50 (the source's name)
[8] = tested on: Bovine viral diarrhea virus 1; experiment: Antiviral activity against Bovine viral diarrhea virus; format: functional, organism-based; conditions: Bovine viral diarrhea virus isolates and strains
[9] = tested on: Salmonella typhimurium; experiment: Antibacterial activity against Salmonella typhimurium; format: functional, Salmonella enterica subsp. enterica serovar Typhimurium
[10] = tested on: Escherichia coli; experiment: Antibacterial activity against Escherichia coli; format: functional
[11] = tested on: Bacillus subtilis; experiment: Antibacterial activity against Bacillus subtilis; format: functional
[12] = biological target: T2, Human immunodeficiency virus type 1 integrase (Human immunodeficiency virus 1, UniProt Q7ZJM1); experiment: Inhibition of HIV1 integrase strand transfer activity
[13] = biological target: T2, Human immunodeficiency virus type 1 integrase; experiment: Inhibition of HIV1 integrase 3' processing activity
[14] = tested on: Caenorhabditis elegans; experiment: Nematicidal activity against Caenorhabditis elegans after 2 days; format: functional; conditions: 48 h, read-out: LD50 (the source's name)
[15] = biological target: C-C chemokine receptor type 4 (Homo sapiens, UniProt P51679); experiment: Antagonist activity at CCR4; format: functional
[16] = biological target: Muscarinic acetylcholine receptor M1 (Rattus norvegicus, UniProt P08482); experiment: Displacement of [3H]QNB from M1 receptor in Wistar rat cerebral cortex homogenate; format: tissue-based
[17] = biological target: Phosphotyrosine-protein phosphatase PTPB (Mycobacterium tuberculosis, UniProt P96830); experiment: Inhibition of Mycobacterium tuberculosis protein tyrosine phosphatase B
[18] = tested on: Mycobacterium tuberculosis; experiment: Growth inhibition of Mycobacterium tuberculosis H37Rv; format: functional
[19] = tested on: Human alphaherpesvirus 2; experiment: Antiviral activity against Herpes simplex virus 2; format: functional, organism-based
[20] = tested on: Human alphaherpesvirus 1; experiment: Antiviral activity against Herpes simplex virus 1 KOS; format: functional, organism-based; conditions: Human alphaherpesvirus 1, KOS
[21] = tested on: Influenza A virus; experiment: Antiviral activity against Influenza A virus H3N2; format: functional, organism-based
[22] = tested on: Influenza B virus; experiment: Antiviral activity against influenza B virus; format: functional, organism-based
[23] = tested on: Trypanosoma; experiment: Growth inhibition of epimastigote form of Trypanosoma at 100 ug/ml; format: functional; conditions: read-out: GI
[24] = tested on: Mycobacterium tuberculosis; experiment: Growth inhibition of Mycobacterium tuberculosis H37Rv at 6.25 ug/ml; format: functional; conditions: read-out: GI
[25] = biological target: Tyrosine-protein phosphatase non-receptor type 1 (Homo sapiens, UniProt P18031); experiment: Inhibition of GST-tagged PTP1B using pNPP as substrate by spectrophotometric analysis
[26] = tested on: Human immunodeficiency virus 1; experiment: Antiviral activity against HIV1; format: functional, organism-based
[27] = Inhibition of HIV reverse transcriptase; set-up: species or system Human immunodeficiency virus

Muscarinic acetylcholine receptor M1, sequence (P08482 whole entry): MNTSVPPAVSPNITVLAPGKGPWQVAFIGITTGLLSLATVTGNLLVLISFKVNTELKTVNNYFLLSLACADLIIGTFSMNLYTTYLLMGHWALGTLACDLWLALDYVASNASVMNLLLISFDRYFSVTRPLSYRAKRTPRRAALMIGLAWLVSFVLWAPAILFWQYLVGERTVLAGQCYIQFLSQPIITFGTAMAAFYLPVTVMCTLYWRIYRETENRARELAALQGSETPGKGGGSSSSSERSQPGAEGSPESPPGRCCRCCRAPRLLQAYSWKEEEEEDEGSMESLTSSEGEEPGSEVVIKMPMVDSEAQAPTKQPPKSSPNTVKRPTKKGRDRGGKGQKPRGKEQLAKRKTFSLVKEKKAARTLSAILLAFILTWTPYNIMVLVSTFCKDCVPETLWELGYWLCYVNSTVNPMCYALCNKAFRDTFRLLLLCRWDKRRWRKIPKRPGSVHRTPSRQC
T2 sequence (Q7ZJM1 whole entry): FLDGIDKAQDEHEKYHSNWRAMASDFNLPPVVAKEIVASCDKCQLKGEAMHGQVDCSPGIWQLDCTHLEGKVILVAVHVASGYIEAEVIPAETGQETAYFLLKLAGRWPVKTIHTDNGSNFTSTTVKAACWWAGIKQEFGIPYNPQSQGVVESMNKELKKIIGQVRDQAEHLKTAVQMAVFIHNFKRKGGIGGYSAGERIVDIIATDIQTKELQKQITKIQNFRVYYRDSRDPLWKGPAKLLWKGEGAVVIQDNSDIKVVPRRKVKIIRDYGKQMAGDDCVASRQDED
Tyrosine-protein phosphatase non-receptor type 1, sequence (P18031 whole entry): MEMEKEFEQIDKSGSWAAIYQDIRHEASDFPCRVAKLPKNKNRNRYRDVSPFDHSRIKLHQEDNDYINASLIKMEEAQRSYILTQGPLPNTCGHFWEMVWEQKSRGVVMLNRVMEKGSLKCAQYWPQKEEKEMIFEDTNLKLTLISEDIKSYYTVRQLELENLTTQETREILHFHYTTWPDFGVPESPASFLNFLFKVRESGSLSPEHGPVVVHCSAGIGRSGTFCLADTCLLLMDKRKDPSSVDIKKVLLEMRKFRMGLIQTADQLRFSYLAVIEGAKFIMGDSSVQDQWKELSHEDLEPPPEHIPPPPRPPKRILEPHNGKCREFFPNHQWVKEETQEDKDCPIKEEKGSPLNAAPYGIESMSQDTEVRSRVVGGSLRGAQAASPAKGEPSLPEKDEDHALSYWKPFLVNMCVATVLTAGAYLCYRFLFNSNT
Phosphotyrosine-protein phosphatase PTPB, sequence (P96830 whole entry): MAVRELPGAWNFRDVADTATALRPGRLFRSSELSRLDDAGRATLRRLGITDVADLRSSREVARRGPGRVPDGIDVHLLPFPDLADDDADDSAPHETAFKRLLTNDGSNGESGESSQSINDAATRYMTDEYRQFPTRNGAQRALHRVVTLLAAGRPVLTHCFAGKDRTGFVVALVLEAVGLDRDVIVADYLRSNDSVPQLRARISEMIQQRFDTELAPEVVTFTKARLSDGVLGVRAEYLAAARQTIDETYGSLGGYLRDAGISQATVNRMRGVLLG
C-C chemokine receptor type 4, sequence (P51679 whole entry): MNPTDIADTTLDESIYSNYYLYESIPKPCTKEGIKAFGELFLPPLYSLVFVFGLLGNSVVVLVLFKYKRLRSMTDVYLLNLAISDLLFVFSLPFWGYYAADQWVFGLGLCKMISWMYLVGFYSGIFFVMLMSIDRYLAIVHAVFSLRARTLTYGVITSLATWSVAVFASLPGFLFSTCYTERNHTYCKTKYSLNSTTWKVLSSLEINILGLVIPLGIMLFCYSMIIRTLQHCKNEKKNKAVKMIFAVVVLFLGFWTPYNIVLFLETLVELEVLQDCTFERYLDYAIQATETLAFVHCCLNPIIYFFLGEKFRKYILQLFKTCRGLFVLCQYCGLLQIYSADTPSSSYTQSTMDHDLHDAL

For `NS(=O)(=O)c1ccc(N2C(=O)CSC2c2ccccc2)cc1` (centres undefined), the “inhibition (INH)” value [1] was 78%.
Molecule `CNC(=O)CC1S/C(=N\N=C(/C)c2cccc(Br)c2)N(C)C1=O` (centres undefined) has an inhibition of growth at 100 µg/mL [2] of 60%.
Work on `COc1ccc(CCNC(=O)C[C@H]2S[C@@H](c3ccc(C#Cc4ccccc4)cc3)N(c3ccc(C(N)=O)c(Cl)c3)C2=O)cc1OC` yielded an EC50 [3] of 0.001 µM.
For `CCOc1cc(CCNC(=O)C[C@H]2S[C@@H](c3ccc(C#Cc4ccccc4)cc3)NC2=O)ccc1OC`, the EC50 [4] was 0.08 µM and the EC50 [5] was 0.05 µM.
In the case of `COc1cc(C2SCC(=O)N2NC(=O)c2ccncc2)ccc1O` (centres undefined), the MIC [6] is reported as 0.31 mg/L (≈ 0.898 µM).
With `COc1ccc(Cc2cccc(C3SC(CC(=O)O)C(=O)N3c3cccc(O)c3)c2)cc1C1SC(CC(=O)O)C(=O)N1c1cccc(O)c1` (centres undefined) the LC50 [7] was 210 mg/L (≈ 300 µM).
In the case of `CC1S/C(=N/N=C2\C(=O)Nc3ccc([N+](=O)[O-])cc32)N(c2ccc(Br)cc2)C1=O` (centres undefined), the EC50 [8] is reported as 13 mg/L (≈ 27.4 µM).
In the case of `CC1C(N2C(=O)CSC2c2cc(I)cc(I)c2O)C(=O)N(c2ccccc2)N1C` (centres undefined), the “inhibition zone (IZ)” value [9] is reported as 25 mm, the “inhibition zone (IZ)” value [10] is reported as 27 mm and the “inhibition zone (IZ)” value [11] is reported as 24 mm.
Molecule `O=C(Nc1ccc(O)cc1)C(=S)NN1C(=O)/C(=C\c2cc(I)cc(I)c2O)SC1=S` has an IC50 [12] of 3 µM and an IC50 [13] of 7 µM.
With `Cc1c(N2C(=O)CSC2c2cc(I)cc(I)c2O)c(=O)n(-c2ccccc2)n1C` (centres undefined) the “inhibition zone (IZ)” value [9] was 25 mm, the “inhibition zone (IZ)” value [10] was 27 mm and the “inhibition zone (IZ)” value [11] was 24 mm.
For `COc1ccc(Cc2cccc(C3SCC(=O)N3c3cccc(O)c3)c2)cc1C1SCC(=O)N1c1cccc(O)c1` (centres undefined), the LC50 [14] was 240 mg/L (≈ 410 µM).
In the case of `C[C@H](NC(=O)C[C@H]1S[C@H](c2ccc(Cl)cc2Cl)N(CC(=O)NCCCN2CCCCC2)C1=O)c1cccc2ccccc12`, the IC50 [15] is reported as 0.11 µM.
`Cc1ccc(C2SCC(=O)N2C2=CCCN(C)C2)cc1` (centres undefined) showed an IC50 [16] of 143 µM and a Ki [16] of 26 µM.
Molecule `O=C1CS(=O)(=O)C2(C(=O)N(Cc3ccc(Br)cc3)c3ccc([N+](=O)[O-])cc32)N1c1ccc(F)c(F)c1` (centres undefined) has an IC50 [17] of 1.1 µM.
`O=c1oc2ccccc2cc1-c1cs/c(=N\N=C\c2ccc(Cl)c(Cl)c2)n1C1CCCCC1` gave an Imax [18] of 42%.
`Cc1cc(C)nc(N2C(=O)CSC2c2c(C)cccc2C)c1` (centres undefined) gave an EC50 [19] of 161 µM, an EC50 [20] of 130 µM and an EC50 [21] of 249 µM. It also gave an EC50 [22] of 263 µM.
With `O=C(N/N=C1/SCC(=O)N1c1ccccc1)c1cc(-c2cc3ccccc3o2)n(-c2ccccc2)n1` the “inhibition zone (IZ)” value [11] was 40 mm.
Molecule `O=C1CSC(c2cccc3ccccc23)N1c1ccc(Br)cc1` (centres undefined) has an inhibition of growth at 100 µg/mL [23] of 91.4%.
Work on `COc1ccc(C(=O)Nc2ccc(C(=O)NN3C(=O)CSC3c3coc([N+](=O)[O-])c3)cc2)cc1` (centres undefined) yielded an inhibition of growth at 6.25 µg/mL [24] of 90%.
Molecule `O=C(O)CN1C(=O)/C(=C/c2ccc(-c3ccc(OCc4ccccc4)cc3)cc2)SC1=S` has an IC50 [25] of 0.48 µM.
`Cc1cccc(N2C(=O)CSC2c2ccccn2)n1` (centres undefined) showed an EC50 [26] of 0.0078 µM.
With `Cc1nc(N2C(=O)CSC2c2ccccc2Cl)nc(C)c1C` (centres undefined) the IC50 [27] was 2.95 µM.
`COc1ccc(C(=O)Nc2ccc(C(=O)NN3C(=O)CSC3c3ccc(F)cc3)cc2)cc1` (centres undefined) showed an inhibition of growth at 6.25 µg/mL [24] of 98%.
With `Cc1ccc(-c2cc(C(F)(F)F)nn2-c2ccc(S(N)(=O)=O)cc2)cc1` [CELECOXIB] the “inhibition (INH)” value [1] was 45%.
